# Results reported in patent US11931327B2, “Drug for retinal degenerative disease associated with photoreceptor degeneration” (Daiichi Sankyo Company, Limited, priority 2017, dated 2024).
# Assays:
# [1] = system: transgenic zebrafish Tg (rho: NTR-NanoLuc, my17: DsRed2); assay: animal or person
# Description: First, the present inventors constructed a model for evaluating induction of rod cell regeneration. […] Transgenic zebrafish Tg (rho: NTR-NanoLuc, my17: DsRed2), in which a fluorescent protein, DsRed2, which is cardiac-tissue specifically expressed by cardiomyocyte-specific my17 promoter, can be simply detected by using dsRed2 as a marker under a fluorescence stereomicroscope. In the transgenic zebrafish, in addition to cardiac tissue specific expression of DsRed2, a reductase, i.e., nitroreductase (NTR), and a photoprotein, i.e., NanoLuc fusion protein (NTR-NanoLuc), are expressed by a rod-cell specific rho promoter, in a rod-cell specific manner. […] However, if, a prodrug, metronidazole, is added, non-toxic metronidazole is converted to a toxic radical by NTR. […] After rod cells are ablated by treatment with metronidazole, the transgenic zebrafish were washed with rearing water to remove the toxic radical. […] In the transgenic zebrafish, rod cells can be quantitatively determined by measuring the amount of luminescence derived from rod-cell-specific NanoLuc expression. After the rod cells are ablated, the transgenic zebrafish are exposed to a test compound. The activity of the test compound to induce rod-cell regeneration can be quantitatively evaluated by measuring the amount of luminescence derived from NanoLuc and specific to rod cells.
# 1) On the day before collection of eggs, a pair of male and female zebrafish, i.e., a transgenic fish Tg (rho: NTR-NanoLuc, my17: DsRed2) and a wild type, were placed in a tank for mating and isolated by a divider.
# 2) The next morning (8:00-11:00), the divider was removed to allow them to mate with each other. Fertilized eggs were collected. In the evening (16:00-18:00) of the same day, only normally developed fertilized eggs were screened and raised in a plate for growth.
# 3) Day 3 after fertilization, juvenile fish were transferred to rearing water, which contained 10 mM metronidazole (Sigma-Aldrich, Japan) and 1% DMSO (Wako Pure Chemical Industries Ltd.), (prepared by dissolving 60 mg of instant ocean (Napco Limited (Japan)) in 1 L of distilled water), and raised in dark conditions for 24 hours. In this manner, ablation was specifically applied to the rod cells of the juvenile fish. In contrast, non-ablated juvenile fish, which were to be used as a control, were transferred to a tank containing rearing water, which contained a 1% DMSO solution, and raised.
# 5) Ablated juvenile fish of 4 days after fertilization were washed well with Egg water and dispensed in wells of the assay plate containing a compound together with 100 μL of Egg water, such that 2 juvenile fish individuals were present per well.
# 6) After the juvenile fish were raised for 2 days, […] of Egg water was removed and ethyl 3-aminobenzoate methanesulfonate (Sigma-Aldrich Japan; 0.4 mg/mL, 10 μL) was added to euthanize the fish.
# 7) Nano-Glo (registered trademark) Luciferase assay Substrate (Promega Corporation) was added to Nano-Glo (registered trademark) Luciferase assay buffer (Promega Corporation) in a ratio of 1:50 and 100 μL of the resultant solution was added to each of the wells.
# 8) Shaking was carried out by use of BIO-Mixer (Biotech Japan Co., Ltd.) for one hour and luminescence of NanoLuc (registered trademark) was measured by use of EnVision (PerkinElmer Co., Ltd., Japan).
# Individual concentration groups were compared to the DMSO control group by the Dunnett's test.
# [2] = system: Pathological zebrafish 1: Tg (rho: EGFP) crossed with Tg (rho: hRHO (Q344X), omp: EGFP); assay: Rod-cell regeneration effect in retinitis pigmentosa model, EGFP observed by confocal laser microscope; type: in vivo; details: 1 μM; fish raised 2 days with compound; FIG. 6
# Procedure: Pathological model fish, in which rod-cell regeneration can be observed, were prepared using zebrafish known as a retinitis pigmentosa model. The effect of a compound was confirmed in accordance with the following procedure. As the compound to be evaluated, TTNPB (Sigma-Aldrich, Cat. No. T3757-10MG), was used.
# 1) To prepare a pathological model, in which rod-cell regeneration can be observed, zebrafish Tg (rho: EGFP) (Hamaoka T1, Takechi M, Chinen A et al., Visualization of rod photoreceptor development using GFP-transgenic zebrafish. Genesis. 2002; 34 (3): 215-220.; used as a reporter fish of rod cells) were crossed with zebrafish Tg (rho: hRHO (Q344X), omp: EGFP), which is a name under another nomenclature system of a retinitis pigmentosa model, i.e., zebrafish RH1: hRhodopsin (Q344X) (Nakao T, Tsujikawa M, Notomi S, Ikeda Y, Nishida K., “The role of mislocalized phototransduction in photoreceptor cell death of retinitis pigmentosa.”, PLoS One., 2012; 7 (4): e32472). The zebrafish obtained were specified as zebrafish (Pathological zebrafish 1). Control zebrafish (non-pathological zebrafish) were obtained by crossing zebrafish Tg (rho: EGFP) with wild-type zebrafish. […]
# Luminescence of EGFP specifically expressed in rod cells was observed by a confocal laser microscope in the following procedure. […]
# [3] = system: pathological zebrafish 2: Tg (rho: NTR-NanoLuc, my17: DsRed2) crossed with Tg (rho: hRHO (Q344X), omp: EGFP); assay: Rod-cell regeneration effect in retinitis pigmentosa model, quantitative evaluation by NanoLuc luminescence; type: in vivo; details: N=8 per concentration; Dunnett's test; FIG. 7
# Procedure: Pathological model zebrafish, in which rod-cell regeneration can be quantitatively evaluated, were newly prepared using zebrafish known as a retinitis pigmentosa model. The effect of compounds was quantitatively verified in accordance with the following procedure.
# 1) Quantitative evaluation of rod-cell regeneration was carried out by zebrafish (pathological zebrafish 2) obtained by crossing transgenic Tg (rho: NTR-NanoLuc, my17: DsRed2) and Tg (rho: hRHO (Q344X), omp: EGFP).
# Fertilized eggs were collected.
# A screening test was repeated 8 times (N=8) at each concentration.
# 2) After shaking for one hour using BIO-Mixer, the luminescence from NanoLuc (registered trademark) was measured by use of EnVision.
structure (smiles),measurement,setting,value
"C/C(=C\c1ccc(C(=O)O)cc1)c1ccc2c(c1)C(C)(C)CCC2(C)C [TTNPB, 4-[(E)-2-(5,6,7,8-tetrahydro-5,5,8,8-tetramethyl-2-naphthalenyl)-1-propenyl]benzoic acid]",rod-cell regeneration induction activity compared to the DMSO control,"[1]; Examples 3 and 4, TTNPB 0.3, 1, 3, 10 and 30 μM, N=4, RA and BMS493 N=8, Dunnett's test",statistically significant rod-cell regeneration induction activity at all concentrations
same,concentration at which the medicinal effect already reached saturation,"[1]; minimum concentration tested, range 0.3-30 μM",≤ 0.3 µM
same,Activation (%),"[1]; screening, 2.5 μM, relative to average of DMSO control = 100",≥ 150%
same,number of rod cells compared to pathological fish untreated with drug,[2],Recovery in the number of rod cells was confirmed
same,"regeneration of rod cells in the retinitis pigmentosa model (luminescence, words)",[3],statistically significant regeneration of rod cells in a dose dependent manner
